Source: article PMC7371863, “Intracellular interplay between cholecystokinin and leptin signalling for satiety control in rats” (Scientific Reports, 2020)
Like-named read-outs stand apart in the source and are kept apart here.

Experiments:
[1] = test system: nuclear pSTAT3 in the rat VMN; assay: Nuclear pSTAT3-ir in VMN after i.c.v. injection; assay type: in vivo
Experimental: A guide cannula (cut length 5 mm, no. C315G; Plastics One Inc.) was stereotaxically implanted to the right lateral ventricle of each rat, with the coordinates of 0.8 mm posterior to the bregma, 1.4 mm lateral to the midline, and 3.3 mm ventral from the skull surface. The canula was secured on the skull surface with two stainless steel screws and dental acrylic resin. The rats were then allowed to recover in their home cage for at least 1 week. Leptin (4 µg) and CCK (2 µg) were dissolved in 4 µl ACSF and administered through an internal cannula (cut length 5.5 mm, no. C315I; Plastics One Inc. C315I). To minimize the effect of endogenous signals, the rats were deprived of food for 10 h (08:00–18:00) before i.c.v. administration. Drugs were infused at a flow rate of 1 µl/min over 4 min using a motorized syringe pump (Carnegie Medicine model CMA/102), followed by another 4 min of rest for diffusion. One hour after i.c.v. administration, the rat brain was removed for immunohistochemical analysis.
For immunohistochemical analysis of rat hypothalamic slices, animals were deeply anesthetized with an i.p. injection of sodium pentobarbital (50 mg/kg) and transcardially perfused with PBS(−) for 5 min followed by ice-cold 4% (w/v) paraformaldehyde in PBS(−) for 15 min. The brain was removed and further fixed in the same fixative (4 °C, overnight). Then, the olfactory bulbs and/or cerebellum were removed from the brain in ice-cold PBS(−). Pre-trimmed brain tissues were immersed in 30% (w/v) sucrose and stored overnight at 4 °C. The fixed and cryoprotected brain tissues were embedded with OCT compound. Frozen sections of 30 µm thickness were cut using a cryostat microtome and washed three times with PBS(−) in 24-well plates, after which they were mounted on glass slides. […]
(§1) Images were acquired using a confocal laser-scanning microscope (Olympus FV1000 or Nikon A1R MP plus) with a laser diode (405 nm), argon laser (488 nm), and helium neon laser ([…]). The nuclear immunofluorescent intensity (8-bit depth) was analyzed using Photoshop CS 6 software.

VMN cells = assay: Ca2+ imaging in rat VMN slices; assay type: cell-based; settings: for cells responding exclusively to leptin or CCK-8s, VMN (discussion): approximately, population analysis; for Rmax, Ca2+ concentration response / EC50: four-parameter Hill function; for EC50: read-out: EC50, Ca2+ concentration response
VMN neurons = assay: Whole cell patch clamp, action potential firing in VMN neurons; assay type: cell-based, rat; settings: for action potential firing frequency: n.s.
Experimental: The VMH slices (300-μm thickness) were prepared following deep pentobarbital anaesthesia administration to postnatal day (PD) 12–16 rats using a vibrating blade microtome in ice-cold high-Mg^2+ artificial cerebrospinal fluid (ACSF) containing 138.6 mM NaCl, 3.35 mM KCl, 21 mM NaHCO3, 0.6 mM NaH2PO4, 9.9 mM D-glucose, 0.5 mM CaCl2, and 4 mM MgCl2 bubbled with 95% O2/5% CO2. The slices were incubated at room temperature for 1 h in regular ACSF containing 2.5 mM CaCl2, and 1.0 mM MgCl2 bubbled with 95% O2/5% CO2. Subsequently, the slices were transferred to an upright microscope stage (Olympus BX50WI). The recording chamber was perfused with oxygenated normal ACSF at 3 ml/min at 34 °C. VMN neurons were visualized through an infrared CCD camera (Hamamatsu Photonics C2741-79). Neurons were recorded in the whole-cell current-clamp mode using a patch-clamp amplifier (Axon Instruments Axopatch 200B). The recordings were performed using patch pipettes with an access resistance of 4–6 MΩ and internal solution containing 135 mM potassium gluconate, 5 mM KCl, 10 mM HEPES, 0.1 mM CaCl2, 1.0 mM EGTA, 10 mM phosphocreatine, 2 mM Mg-ATP, and 0.2 mM Na-GTP (pH adjusted to 7.3 with KOH). The output of the amplifier was digitised using an A/D converter board (Axon Instruments Digidata 1200) with a sampling rate of 10 kHz and recorded on a hard disk by data acquisition software (Axon Instruments pCLAMP 8). Membrane potentials were low-pass-filtered at 2 kHz. Resting membrane potentials less than − 60 mV were set to approximately − 60 mV by current injections. Stimulants were applied by the gravity drop perfusion system. Further details of electrophysiological recordings were described previously.

pSTAT3 in C6-ObRb cells = assay: Immunofluorescent staining of pSTAT3 in C6-ObRb cells; assay type: cell-based, rat C6 cells, mouse ObRb
Experimental: Rat C6 glioma cells were cultured in Dulbecco’s Modified Eagle Medium/F12 (DMEM/F12) supplemented with 10% FBS, sodium bicarbonate (1.2 g/L), and 1% penicillin/streptomycin antibiotics at 37 °C in 5% CO2. The full-length mouse leptin receptor (ObRb) in pcDNA3.1 vector was kindly provided by Dr. Christian Bjørbaek (BIDMC, Harvard Medical School, Boston, MA, USA) and transfected using Lipofectamine 2000. Subsequently, the cells were cultured in medium containing 500 μg/mL G418 for cell selection.
[…] Cells were treatment with AG490 (1 μM) or LY294002 (50 μM) 15 min prior to the leptin stimulation until the time of fixation. These cells were fixed in 4% phosphate-buffered paraformaldehyde for 15 min and washed three times with PBS(−). The fixed samples were then incubated for 2 h at room temperature in 10% donkey serum dissolved in 0.1% Triton-X PBS(−). Next, samples were incubated with 1:100 affinity-purified rabbit phospho-STAT3 (pTyr^705) dissolved in 5% donkey serum PBS(−) for 24 h at 4 °C. After three 20-min PBS(−) rinses, samples were incubated in 1:400 Cy3-conjugated donkey anti-rabbit IgG for 2 h at room temperature. Finally, samples were rinsed with PBS(−) (four 15-min rinses on an orbital shaker) and mounted using Vectashield containing 4′,6-diamidino-2-phenylindole (DAPI).
as §1

ARC cells = assay type: cell-based, rat; settings: leptin 500 nM; 12 slices; 0.5 µM tetrodotoxin; 34 °C; mean with standard error
[2] = leptin with co-stimulation of 1 nM CCK-8s

## CCK-8s [reference compound]
[1]; CCK-8s 2 µg co-injected with leptin 4 µg i.c.v.
  nuclear pSTAT3 levels in VMN versus single leptin injection: reduced nuclear pSTAT3 levels in the rat VMN compared with single leptin injections
VMN cells; CCK-8s 1 nM alone, n = 216 in 18 slices
  Ca2+ transients in slice preparation: failed to evoke Ca^2+ transients
VMN cells; CCK-8s 1 nM with leptin 1–1,000 nM, p < 0.01 two-way ANOVA
  effect of co-stimulation on leptin-induced Ca2+ responses: amplified leptin-induced Ca^2+ responses
VMN cells; CCK-8s 10 nM versus leptin 500 nM, 11 slices, mean with standard error
  cells that exclusively responded to CCK-8s, VMN: 5.2 ± 1.1%
VMN cells; CCK-8s 10 nM, leptin 500 nM, 11 slices, mean with standard error
  leptin responders also responding to CCK-8s, VMN: 81.3 ± 9.1%
VMN cells; leptin 500 nM and CCK-8s 10 nM
  cells responding exclusively to leptin or CCK-8s, VMN (discussion): 5–12%
  cells showing leptin-induced Ca2+ increase that also responded to CCK-8s (discussion): more than 80%
VMN neurons; CCK-8s 1 nM, n = 9, spontaneous 1.45 ± 0.07 Hz, − 60 mV, 34 °C
  action potential firing frequency: 1.28 ± 0.15 Hz
pSTAT3 in C6-ObRb cells; CCK-8s 50 nM
  cytosolic pSTAT3-ir: induced cytosolic pSTAT3-ir
pSTAT3 in C6-ObRb cells; CCK-8s 50 nM with leptin 100 nM, 30 images/three dishes, p < 0.01
  nuclear pSTAT3-ir on co-stimulation versus leptin alone: significantly smaller than that by leptin stimulation alone
pSTAT3 in C6-ObRb cells; CCK-8s 50 nM, 30 images/three dishes, p < 0.01
  nuclear intensity of pSTAT3-ir versus unstimulated controls: significantly smaller in the CCK-8s-treated group than in unstimulated controls

## leptin: peptide hormone secreted from white adipocyte tissue, product of the obese gene; PeproTech Cat#450-31
[1]; leptin 4 µg i.c.v., 1 h, 10 h food-deprived, p < 0.01
  number of nuclear pSTAT3-ir in VMN relative to vehicle-injected control: three times
[1]; leptin 4 µg with CCK-8s 2 µg i.c.v., 1 h, n.s.
  number of nuclear pSTAT3-ir in VMN, co-administration, versus vehicle: failed to increase the number of nuclear pSTAT3-ir
VMN cells; leptin 500 nM and CCK-8s 10 nM
  cells responding exclusively to leptin or CCK-8s, VMN (discussion): 5–12%
VMN cells; leptin 500 nM versus CCK-8s 10 nM, 11 slices, mean with standard error
  cells that exclusively responded to leptin, VMN: 12.2 ± 1.5%
VMN cells; leptin 500 nM, 11 slices, 0.5 µM tetrodotoxin, 34 °C, mean with standard error
  cells with monophasic Ca2+ increase, VMN: 65.4 ± 7.5%
VMN cells; leptin alone
  Rmax, Ca2+ concentration response: 0.2
  EC50: 153 nM
VMN cells; leptin with 1 µM LGM
  Rmax, Ca2+ concentration response: 0.14
  EC50: 163 nM
VMN cells; [2]
  Rmax, Ca2+ concentration response: 0.26
  EC50: 42.8 nM
VMN neurons; leptin 30 nM with CCK-8s 1 nM
  neurons with apparent (> twofold) increase in firing frequency, co-stimulation: Five neurons in nine recordings
VMN neurons; leptin 30 nM with CCK-8s 1 nM, n = 9, p < 0.01, spontaneous 1.45 ± 0.07 Hz, − 60 mV, 34 °C
  action potential firing frequency, co-stimulation: 3.49 ± 0.68 Hz
VMN neurons; leptin 30 nM with CCK-8s 1 nM, single neuron maximum
  highest action potential firing frequency, co-stimulation: 5.5 Hz
VMN neurons; leptin 30 nM, n = 9, spontaneous 1.45 ± 0.07 Hz, − 60 mV, 34 °C
  action potential firing frequency: 1.55 ± 0.13 Hz
ARC cells
  cells with monophasic Ca2+ increase, ARC: 25.9% ± 4.5
pSTAT3 in C6-ObRb cells; leptin 100 nM, 30 images/three dishes, p < 0.01 one-way ANOVA
  nuclear pSTAT3-ir: significantly increased pSTAT3-ir in the nuclei
